Experimental findings from patent US4598146A, “Compound, arugomycin” (Kirin Beer Kabushiki Kaisha, priority 1983, dated 1986) are described below.

This data set deals with mice. The conditions noted are these: mouse, in vivo, ip.

The compound `COC(=O)C1c2cc3c(c(O)c2C(OC2CC(OC)C(OC4CC(O)C(OC5CC(OC)C(OC6CC(OC)C(OC(=O)C=CC(=O)O)C(C)O6)C(C)O5)C(C)O4)C(C)O2)CC1(C)O)C(=O)c1c(O)cc2c(c1C3=O)OC1OC2(C)C(OC2CC(O)C(OC3CC(C)([N+](=O)[O-])C(OC4CC(OC)C(O)C(C)O4)C(C)O3)C(C)O2)C(N(C)C)C1O` (stereo not shown) [Arugomycin] came in with an LD50 of 1.75 mg/kg.
